Measurements from article PMC12303380 (PLOS Pathogens, 2025).
Values joined by “and” are separate entries in the source; they are usually repeats but may differ in a detail not shown here. Equal entries are not always repeated.

What was measured:
CD94/NKG2A [1] = settings: cited from earlier work
CD94/NKG2A [2] = format: binding, human
CD94/NKG2C = format: binding, human
HLA-E*0103 = HLA-E*0103 (Homo sapiens, UniProt P13747); format: binding
CD56dimNKG2A+ NK cells = format: cell-based, human
CD56dimNKG2A- NK cells = format: cell-based, human

## AISPRTLNA [AA9]
CD94/NKG2A [1]
  recognition of HLA-E/peptide complex by NKG2A/CD94 on NK cells: unable to be recognized by NKG2A/CD94

## EADPTGHSY [MAGE-1]
CD94/NKG2A [2]
  CD94/NKG2A+HLA-E+: 0.02% and 0.28% and 0.56%
CD94/NKG2C
  CD94/NKG2C+HLA-E+: 0.54% and 1.07% and 0.11%

## EADPTGHSY/ NLVPMVATV [MAGE-1/HCMV PP65]
HLA-E*0103
  HLA-E MFI: 8070 and 8138 and 7351

## LQPRTFLL
CD94/NKG2A [1]
  recognition of HLA-E/peptide complex by CD94/NKG2A on NK cells: could recognize and interact

## NLVPMVATV [PP65]
CD56dimNKG2A+ NK cells
  CD107a+CD56dimCD16+NKG2A+NKG2C-CD57-NK cells: 4.88 and 4.5 and 3.34
CD56dimNKG2A- NK cells
  Perforin+CD56dimCD16+NKG2A-NKG2C-CD57-NK cells: 97.2 and 72.64 and 80.98 and 81.41

## VMAPRTLIL [HLA-Cw*03 leading seq]
HLA-E*0103
  FI: 2.38 and 2.67 and 2.55
  FI (fluorescent index of HLA-E expression): 2.55
  HLA-E MFI: 26721 and 22777 and 24852
CD94/NKG2A [2]
  CD94/NKG2A+HLA-E+: 46.76% and 47.67% and 24.83%
  frequency of CD94/NKG2A+HLA-E+ cells: 47.67%
CD94/NKG2C
  CD94/NKG2C+HLA-E+: 1.12% and 2.94% and 8.23%

## VMPLSAPTL
CD94/NKG2A [1]
  recognition of HLA-E/peptide complex by CD94/NKG2A on NK cells: could not be interacted with CD94/NKG2A
